Active and inactive are the calls of the source. The rule behind the calls is not given here.
Legend:
Assay type in all cases: functional, organism-based
[1] = test system: Cladosporium cladosporioides; test: Antifungal activity against Cladosporium cladosporioides at 5 ug by TLC bioassay
[2] = test system: Cladosporium cladosporioides; test: Antifungal activity against Cladosporium cladosporioides at 50 ug by TLC bioassay
[3] = test system: Cladosporium cladosporioides; test: Antifungal activity against Cladosporium cladosporioides at 1 ug by TLC bioassay

## NYSTATIN
[1]
  Activity: Active

## C[C@@H]1CC[C@]2(C)CC[C@]3(C)C(=CC[C@@H]4[C@@]5(C)C[C@@H](O)[C@H](O)C(CO)(CO)[C@@H]5CC[C@]43C)[C@@H]2[C@]1(C)O
[2]
  Activity: Active

## Clc1ccc(COC(Cn2ccnc2)c2ccc(Cl)cc2Cl)c(Cl)c1 (stereo not drawn)
[3]
  Activity: Active
